In patent publication US9440938B2, “Sulfonamide derivative having PGD2 receptor antagonistic activity” (SHIONOGI & CO., LTD., priority 2005, dated 2016) one finds IC50 data, which are given here for 26 molecules.

pIC50: −log10 of the molar value.

For this experiment, the target named is T1, DP receptor (Homo sapiens, UniProt Q13258).
T1 construct: endogenous in cells; host or cells: washed platelets from peripheral blood of a healthy volunteer
T1 sequence (Q13258 1-359): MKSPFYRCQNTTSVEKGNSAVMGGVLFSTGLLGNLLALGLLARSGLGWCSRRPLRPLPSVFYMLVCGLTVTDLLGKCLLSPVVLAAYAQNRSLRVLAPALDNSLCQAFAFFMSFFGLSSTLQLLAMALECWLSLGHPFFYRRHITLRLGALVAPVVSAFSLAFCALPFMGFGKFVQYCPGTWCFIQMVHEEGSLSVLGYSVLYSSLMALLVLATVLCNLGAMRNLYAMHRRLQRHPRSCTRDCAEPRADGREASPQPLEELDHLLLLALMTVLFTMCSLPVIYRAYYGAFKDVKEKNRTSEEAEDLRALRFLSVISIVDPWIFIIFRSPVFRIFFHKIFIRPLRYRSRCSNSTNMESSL
The experiment is described as follows: cAMP assay with washed platelet (DP inhibitory activity in vitro). Type of experiment: cell-based. The settings on record: read-out: IC50 (50% DP-inhibitory concentration in the cAMP assay); washed human platelets, 100 nM PGD2, cAMP by HTRF. Here is the method: 1) Preparation of Platelet and a Method of cAMP Assay
30 mL of peripheral blood was collected from a healthy volunteer using a syringe containing one ninth amount of 3.8% sodium citrate. After being centrifuged at 180 g for 10 minutes at room temperature, a supernatant was collected and used as Platelet Rich Plasma (PRP). The resulting PRP was washed with wash buffer and centrifuged three times (Washed Platelet: WP) and platelets were counted by a microcell counter. WP was added to a plate in amount of 1.5×10^8/assay and the plate was treated with 3-isobutyl-1-methylxanthin (IBMX; 0.5 mM) for 5 minutes. A reaction was initiated by adding 100 nM of PGD2 5 min after an addition of a test compound. The reaction was terminated with an addition of 1N hydrochloric acid after 2 minutes and the cells were destructed using 12% triton X-100. An amount of cAMP in the supernatant was assayed by Homogeneous Trangient Fluorescence (HTRF)
(In general: cAMP levels reflect the balance of adenylyl cyclase and phosphodiesterase activity.)
Regarding `CC(C)Oc1ccc(S(=O)(=O)N2CCC(Oc3ccc(F)cc3CCC(=O)O)CC2)cc1` [Compound I-18], the pIC50 is 5.80.

Turning to `CC(C)Oc1ccc(S(=O)(=O)N2CCN(c3cc(OCC(=O)O)cc(-c4ccccc4)c3)CC2)cc1` [II-57], the pIC50 was 5.92.

With `CC(C)Oc1ccc(S(=O)(=O)N2CCN(c3ccc(OCc4ccccc4)c(OCC(=O)O)c3)CC2)cc1` [II-71], the pIC50 is 5.39.

For `COc1cccc(OC2CCN(S(=O)(=O)c3ccc(OC(C)C)cc3)CC2)c1CCC(=O)O` [Compound I-12], the pIC50 is 5.38.

As for `CC(C)Oc1ccc(S(=O)(=O)N2CCN(c3ccc(OCc4ccoc4)c(OCC(=O)O)c3)CC2)cc1` [II-77], the pIC50 is 5.44.

Turning to `CC(C)Oc1ccc(S(=O)(=O)N2CCN(c3ccc(NC(=O)c4cccnc4)c(OCC(=O)O)c3)CC2)cc1` [II-48], the pIC50 is 5.34.

For the molecule `CC(C)Oc1ccc(S(=O)(=O)N2CCN(c3ccc(-c4ccccc4)c(OCC(=O)O)c3)CC2)cc1` [II-53], the pIC50 was 5.64.

As for `CC(C)Oc1ccc(S(=O)(=O)N2CCN(c3ccc(Cl)c(CC(=O)O)c3)CC2)cc1` [II-20], the pIC50 was 5.37.

`CC(C)Oc1ccc(S(=O)(=O)N2CCN(c3ccc(NC(=O)c4ccno4)c(OCC(=O)O)c3)CC2)cc1` [II-58]: the pIC50 was 5.46.

As to `Cc1ccc(N2CCN(S(=O)(=O)c3ccc(OC(C)C)cc3)CC2)cc1OCC(=O)O` [II-8], the pIC50 was 5.34.

As to `CC(C)OC(=O)Nc1ccc(N2CCN(S(=O)(=O)c3ccc(OC(C)C)cc3)CC2)cc1OCC(=O)O` [II-67], the pIC50 was 5.77.

Turning to `COCC#Cc1cc(OCC(=O)O)cc(N2CCN(S(=O)(=O)c3ccc(OC(C)C)cc3)CC2)c1` [II-37], the pIC50 is 5.82.

With `CC(C)Oc1ccc(S(=O)(=O)N2CCC(Oc3ccccc3CCC(=O)O)CC2)cc1` [Compound I-11], the pIC50 was 5.52.

On to `CC(=O)c1ccc(N2CCN(S(=O)(=O)c3ccc(OC(C)C)cc3)CC2)cc1OCC(=O)O` [II-91], for which the pIC50 is 5.89.

`CC(C)Oc1ccc(S(=O)(=O)N2CCN(c3cc(OCC(=O)O)ccc3Cl)CC2)cc1` [II-69]: the pIC50 is 5.85.

For the molecule `CC(C)Oc1ccc(S(=O)(=O)N2CC=C(c3ccc(Cl)c(OCC(=O)O)c3)CC2)cc1` [Compound I-30], the pIC50 is 6.29.

Take `CC(C)Oc1ccc(S(=O)(=O)N2CCN(c3cccc(OCC(=O)O)n3)CC2)cc1` [II-11]: the pIC50 was 5.64.

For `CC(C)NC(=O)Nc1ccc(N2CCN(S(=O)(=O)c3ccc(OC(C)C)cc3)CC2)cc1OCC(=O)O` [II-68], the pIC50 was 4.77.

Consider `CC(C)Oc1ccc(S(=O)(=O)N2CCN(c3ccc(Oc4ccccc4)c(OCC(=O)O)c3)CC2)cc1` [II-79], for which the pIC50 was 5.64.

Turning to `COC(=O)Nc1ccc(N2CCN(S(=O)(=O)c3ccc(OC(C)C)cc3)CC2)cc1OCC(=O)O` [II-59], the pIC50 was 5.37.

Turning to `COc1cccc(OC2CCN(S(=O)(=O)c3ccc(OC(C)C)cc3)CC2)c1/C=C/C(=O)O` [Compound I-8], the pIC50 is 5.68.

Regarding `CC(C)Oc1ccc(S(=O)(=O)N2CCN(c3cc(F)c(F)c(OCC(=O)O)c3)CC2)cn1` [II-55], the pIC50 is 5.52.

For the molecule `CC(C)Oc1ccc(S(=O)(=O)N2CCN(c3ccc(Cl)c(/C=C/C(=O)O)c3)CC2)cc1` [II-18], the pIC50 is 5.31.

Regarding `Cc1cc(OCC(=O)O)cc(N2CCN(S(=O)(=O)c3ccc(OC(C)C)cc3)CC2)c1` [II-41], the pIC50 is 5.46.

As for `CC(C)Oc1ccc(S(=O)(=O)N2CCC(Oc3ccccc3/C=C/C(=O)O)CC2)cc1` [Compound I-7], the pIC50 was 5.62.

In the case of `CC(C)Oc1ccc(S(=O)(=O)N2CCN(c3ccc(Br)c(OCC(=O)O)n3)CC2)cc1` [II-90], the pIC50 was 6.23.
